From ChEMBL document CHEMBL1137407, “Identification and optimization of anthranilic sulfonamides as novel, selective cholecystokinin-2 receptor antagonists” (J Med Chem, 2006)

Tests used:
Rattus norvegicus [1] = organism: Rattus norvegicus; assay: Plasma concentration in rat; type: ADME, organism-based; conditions: in vivo
[2] = Stability in human liver microsome after 30 mins; type: ADME; conditions: liver microsomes, read-out: Stability
[3] = biological target: T1, Cholecystokinin receptor type A (Cavia porcellus) (UniProt Q63931); assay: Antagonizing effect on CCK-8S-stimulated guinea pig gall bladder smooth muscle contraction by Schild analysis; type: functional, tissue-based; conditions: Muscle tissue
T1 sequence (whole entry): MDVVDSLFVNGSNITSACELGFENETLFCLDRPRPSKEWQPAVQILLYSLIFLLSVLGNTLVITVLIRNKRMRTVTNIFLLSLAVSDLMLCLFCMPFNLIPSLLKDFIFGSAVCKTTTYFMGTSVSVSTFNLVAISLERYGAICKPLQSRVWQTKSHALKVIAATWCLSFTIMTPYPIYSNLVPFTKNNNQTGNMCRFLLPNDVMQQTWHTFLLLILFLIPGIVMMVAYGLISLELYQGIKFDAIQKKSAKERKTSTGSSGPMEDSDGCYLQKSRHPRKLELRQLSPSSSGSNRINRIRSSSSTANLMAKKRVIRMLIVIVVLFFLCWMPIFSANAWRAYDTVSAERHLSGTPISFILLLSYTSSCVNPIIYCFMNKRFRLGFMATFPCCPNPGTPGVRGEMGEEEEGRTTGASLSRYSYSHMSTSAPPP

Cavia porcellus = organism: Cavia porcellus; assay: Antagonizing effect on penta gastrin-stimulated guinea pig gastric smooth muscle contraction by Schild analysis; type: functional, Muscle tissue
[4] = Stability in rat liver microsome after 30 mins; type: ADME; conditions: liver microsomes, read-out: Stability
[5] = Clearance in Sprague-Dawley rat at 2 umol/kg, iv; type: ADME, organism-based; conditions: in vivo
[6] = Half life in Sprague-Dawley rat at 2 umol/kg, iv; type: ADME, organism-based; conditions: in vivo
[7] = Oral bioavailability in Sprague-Dawley rat at 2 umol/kg, po; type: ADME, organism-based; conditions: in vivo
[8] = Clearance in Beagle dog at 2 umol/kg, iv; type: ADME, organism-based, Canis lupus familiaris; conditions: in vivo
[9] = Half life in Beagle dog at 2 umol/kg, iv; type: ADME, organism-based, Canis lupus familiaris; conditions: in vivo
[10] = Oral bioavailability in Beagle dog at 20 umol/kg, po; type: ADME, organism-based, Canis lupus familiaris; conditions: in vivo
Rattus norvegicus [11] = assay: Inhibition of pentagastrin-stimulated gastric acid secretion in iv dosed anesthetized rat measured as increase in pH; type: functional, Stomach
[12] = biological target: T2, Cholecystokinin receptor type A (Homo sapiens, UniProt P32238)
T2 sequence (P32238 whole entry): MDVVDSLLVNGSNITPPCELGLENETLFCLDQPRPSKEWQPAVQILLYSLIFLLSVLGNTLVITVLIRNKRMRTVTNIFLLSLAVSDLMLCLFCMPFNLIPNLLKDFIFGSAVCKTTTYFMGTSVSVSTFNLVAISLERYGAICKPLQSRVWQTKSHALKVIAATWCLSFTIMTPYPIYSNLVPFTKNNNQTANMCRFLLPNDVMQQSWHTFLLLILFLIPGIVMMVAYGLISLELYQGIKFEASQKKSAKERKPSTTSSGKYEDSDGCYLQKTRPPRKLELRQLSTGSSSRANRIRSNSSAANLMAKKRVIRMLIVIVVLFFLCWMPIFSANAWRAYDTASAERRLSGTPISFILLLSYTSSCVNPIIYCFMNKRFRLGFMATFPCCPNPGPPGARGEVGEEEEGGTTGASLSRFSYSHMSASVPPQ
Description: Displacement of [125I]CCK-8S from human CCK1R

[13] = biological target: T3, Gastrin/cholecystokinin type B receptor (Homo sapiens, UniProt P32239); conditions: read-out: Log Ki (converted)
T3 sequence (P32239 whole entry): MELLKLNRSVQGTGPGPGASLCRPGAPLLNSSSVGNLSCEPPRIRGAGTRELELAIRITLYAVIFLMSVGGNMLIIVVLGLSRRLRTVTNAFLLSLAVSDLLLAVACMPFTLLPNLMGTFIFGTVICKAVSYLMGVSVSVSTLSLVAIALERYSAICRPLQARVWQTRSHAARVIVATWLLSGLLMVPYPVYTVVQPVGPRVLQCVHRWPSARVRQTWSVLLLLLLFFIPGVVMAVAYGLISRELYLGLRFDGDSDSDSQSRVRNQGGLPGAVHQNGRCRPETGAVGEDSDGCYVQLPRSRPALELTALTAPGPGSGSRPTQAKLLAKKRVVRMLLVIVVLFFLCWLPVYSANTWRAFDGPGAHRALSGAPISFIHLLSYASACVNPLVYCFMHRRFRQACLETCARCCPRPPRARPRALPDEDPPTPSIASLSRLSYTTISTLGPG
Description: Displacement of [125I]CCK-8S from human CCK2R

[14] = Partition coefficient, log D at pH 7.4; type: physicochemical; conditions: octanol/water
[15] = Stability in human liver microsome after 15 mins; type: ADME; conditions: liver microsomes, read-out: Stability
[16] = Stability in human liver S9 fraction after 15 mins; type: ADME; conditions: read-out: Stability
[17] = Stability in human liver S9 fraction after 30 mins; type: ADME; conditions: read-out: Stability
[18] = Stability in rat liver S9 fraction after 15 mins; type: ADME; conditions: read-out: Stability
[19] = Stability in rat liver S9 fraction after 30 mins; type: ADME; conditions: read-out: Stability
[20] = Stability in dog liver S9 fraction after 15 mins; type: ADME, Canis lupus familiaris; conditions: read-out: Stability
[21] = Stability in dog liver S9 fraction after 30 mins; type: ADME, Canis lupus familiaris; conditions: read-out: Stability
Caco-2 [22] = assay: Apparent permeability from basolateral to apical side of Caco-2 cells; type: ADME, cell-based; conditions: human
Caco-2 [23] = assay: Apparent permeability from apical to basolateral side of Caco-2 cells; type: ADME, cell-based; conditions: human
[24] = Binding to alpha-glycoprotein; type: ADME; conditions: human, read-out: PPB (converted)
[25] = Dissociation constant, pKa of the compound; type: physicochemical
Rattus norvegicus [26] = assay: Inhibition of pentagastrin-stimulated gastric acid secretion in po dosed conscious gastric fistula Sprague-Dawley rat; type: functional; conditions: Stomach

remaining at 0.5 h [2] [%]	remaining at 0.5 h [4] [%]	clearance [5] [mL/min/kg]	half-life [6] [min]	Ki ([12]; read-out: Ki) [nM]	Ki [13] [nM]	Compound	also measured
15	8	11.7	15.6	> 10000	–	O=C(c1ccc(Br)cc1NS(=O)(=O)c1cccc2nsnc12)N1CCCCC1	concentration (Rattus norvegicus [1]): 1300 nM; Kb [3]: > 10000 nM; pKb [3]: < 5; pKb (Cavia porcellus): 8.8; bioavailability [7]: 68%; clearance [8]: 11.7 mL/min/kg; half-life [9]: 25.2 min; bioavailability [10]: 33%; ED50 (Rattus norvegicus [11]): 0.6 mg/kg/h
3.9	–	20.8	9.6	> 10000	39.8	O=C(c1ccc(Cl)cc1NS(=O)(=O)c1cccc2nsnc12)N1CCCCC1	logD [14]: 2.1; remaining at 0.25 h [15]: 19%; remaining at 0.25 h [16]: 69%; remaining at 0.5 h [17]: 51%; remaining at 0.25 h [18]: 78%; remaining at 0.5 h [19]: 62%; remaining at 0.25 h [20]: 78%; remaining at 0.5 h [21]: 59%; Papp (Caco-2 [22]): 1.8 ×10⁻⁶ cm/s; Papp (Caco-2 [23]): 22.7 ×10⁻⁶ cm/s; fraction unbound [24]: 0.23; pKa [25]: 5.47; Kb [3]: > 10000 nM; pKb [3]: < 5; pKb (Cavia porcellus): 8.49; bioavailability [7]: 42%
11	2	–	–	> 10000	63.1	O=C(c1ccc(Cl)cc1NS(=O)(=O)c1cccc2nsnc12)N1CCCCCC1	–
16	9	7	21	–	398	O=C(c1cc(Cl)ccc1NS(=O)(=O)c1cccc2nsnc12)N1CCCCC1	Ki ([12]; read-out: Log Ki (converted)): > 10000 nM
60	46	6	37.2	> 10000	–	O=C(c1ccc(I)cc1NS(=O)(=O)c1cccc2nccnc12)N1CCOCC1	bioavailability [7]: 55%; clearance [8]: 1.62 mL/min/kg; half-life [9]: 90 min; bioavailability [10]: 51%; ED50 (Rattus norvegicus [26]): 0.57 mg/kg
–	–	–	–	> 10000	126	O=C(c1ccc(Br)cc1NS(=O)(=O)c1cccc2nsnc12)N1CCOCC1	–
–	–	–	–	> 10000	1260	O=C(c1ccc(Cl)cc1NS(=O)(=O)c1cccc2nsnc12)N1CCC(CO)CC1	–
–	–	–	–	> 10000	5.01	O=C(c1ccc(I)cc1NS(=O)(=O)c1cccc2nsnc12)N1CCCCC1	–

Second part, the compound before the results:

Compound	remaining at 0.5 h [2] [%]	remaining at 0.5 h [4] [%]	clearance [5] [mL/min/kg]	half-life [6] [min]	Ki ([12]; read-out: Ki) [nM]	Ki [13] [nM]	also measured
CN(Cc1ccccc1)C(=O)c1ccc(Cl)cc1NS(=O)(=O)c1cccc2nsnc12	2.2	–	–	–	> 10000	31.6	–
CC1CCCCN1C(=O)c1ccc(Cl)cc1NS(=O)(=O)c1cccc2nsnc12 (stereo unspecified)	14	3	–	–	> 10000	–	–
O=C(c1ccc(Cl)cc1NS(=O)(=O)c1cccc2nonc12)N1CCCCC1	–	–	–	–	> 10000	1580	pKa [25]: 6.18
O=C(c1cc(Cl)c(Cl)cc1NS(=O)(=O)c1cccc2nsnc12)N1CCCCC1	8	8	–	–	> 10000	–	–
O=C(c1ccc(Br)cc1NS(=O)(=O)c1cccc2nccnc12)N1CCCCC1	21	8	13.8	20.4	> 10000	63.1	bioavailability [7]: 50%
C[C@@H]1C=C[C@H](C)N1C(=O)c1ccc(Cl)cc1NS(=O)(=O)c1cccc2nsnc12	–	–	–	–	> 10000	200	–
O=C(c1ccc(Cl)cc1NS(=O)(=O)c1cccc2nsnc12)N1CCc2ccccc2C1	–	–	–	–	> 10000	1000	–
O=C(c1ccc(-n2cccc2)cc1NS(=O)(=O)c1cccc2nsnc12)N1CCCCC1	–	–	–	–	> 10000	501	–
